Reference: US10842868B2 (priority 2012, dated 2020)

How the values were obtained:
[1] = format: physicochemical; conditions: K2 10, 50, 250 or 500 μg/ml; Al—H 3 mg/ml; all strengths
Protocol: Compound K2 is added to water at 4mg/ml, then 1M NaOH is added to ensure full solubilisation, with stirring for 15 minutes at room temperature. This material is added to a suspension of aluminium hydroxide adjuvant (Al—H) to give the desired final concentration. This mixture is shaken for 2 hours at ambient temperature to ensure full adsorption, and then histidine buffer components are added (10mM histidine buffer, pH 6.5).
Four different mixtures are prepared, giving a final K2 concentration of 10, 50, 250 or 500 μg/ml (to provide a 1, 5, 25 or 50 μg dose of K2 in a 100 μl dosage volume); the Al—H concentration is always 3 mg/ml. At all strengths >95% of compound K2 is adsorbed to the Al—H. The adsorbed adjuvant is referred to hereafter as “Al—H/K2”.

[2] = system: DT, TT, PT, FHA and 69K; format: physicochemical

Cc1cc(OCCOCCOCCP(=O)(O)O)ccc1CCc1cnc2c(N)nc3cc(CCC(=O)O)ccc3c2c1 [K2, 3-(5-amino-2-(2-methyl-4-(2-(2-(2-phosphonoethoxy)ethoxy)ethoxy)phenethyl)benzo [f]-[1,7]naphthyridin-8-yl)propanoic acid]
compound K2 adsorbed to the Al—H [1]: > 95% | adsorption of all antigens [2]: completely adsorbed
